Data published in patent US7582622B2 (N.V. Organon, priority 2003, dated 2009).

What was measured:
serum LH = test: LH suppression assay in mature male castrated rats, p.o.; assay type: in vivo, rat; details: for oral activity (in words): statement in the introduction, test not named; for LH-Suppression MAD po: minimal active dose suppressing serum LH for 65%, castrated male rats, p.o. 4 days daily
Protocol: The in vivo potency of the compounds of the invention was determined in a mature male castrated rat model.
In this model serum LH is high (about 20× fold higher than with intact rats, due to the absence of the negative feedback of testicular testosterone). These rats are p.o. treated for 4 days daily with a given compound of the invention in a suspension fluid of arachis oil or arachis oil +5 or 10% ethanol. Before dosing and 3 hours after the last oral dose blood is collected via tail vein and in the serum LH is determined. Potency (p.o.) of the compounds of the invention (minimal active dose, MAD) is expressed as the amount (mg/kg) of a compound of the invention which suppresses serum LH for 65% (with a 95% confidence interval).
The rat LH Time-Resolved Immuno Fluorometric Assay (TR-IFMA) has been developed in house using home made reagents, a monoclonal catching antibody directed against the β-subunit of human chorion gonadotrophin (hCG, which cross reacts with rat β-subunit) and a biotin labelled detecting antibody (rabbit polydonal antibody directed against the alfa-subunit of recombinant rat LH). Recombinant rat LH was prepared according to known methods, e.g., the method described by Hakola et aL., Molecular & Cellular Endocrinology (1997), 128, 47-56. In this two-site-IFMA, only intact rat LH is determined by a final incubation with streptavidin-europium. The detection in the IFMA is based on fluorescence of the lanthanide europium during a relative long excitation period. The concentration range of rat LH standard is 0.001-10 ng/ml, for optimal accuracy measurements of serum LH serum samples were diluted 8-times with assay buffer (J. I. van Casteren et al., Biol. Reprod. (2000), 62, 886-894).

[1] = target: T1, human androgen receptor (hAR) (Homo sapiens, UniProt P10275); test: transactivative androgen agonistic activity, CHO cells transfected with hAR, MMTV-luciferase; assay type: cell-based; parameters: Androgenic Activity (%): concentration or dose not given beside the values; details: for Androgenic Activity (%): compared with 5α-dihydrotestosterone, CHO-hAR, 16 h, 37° C.
T1 construct: expressed in transfected cells; host or cells: Chinese hamster ovary cells (CHO)
T1 sequence (P10275 1-920): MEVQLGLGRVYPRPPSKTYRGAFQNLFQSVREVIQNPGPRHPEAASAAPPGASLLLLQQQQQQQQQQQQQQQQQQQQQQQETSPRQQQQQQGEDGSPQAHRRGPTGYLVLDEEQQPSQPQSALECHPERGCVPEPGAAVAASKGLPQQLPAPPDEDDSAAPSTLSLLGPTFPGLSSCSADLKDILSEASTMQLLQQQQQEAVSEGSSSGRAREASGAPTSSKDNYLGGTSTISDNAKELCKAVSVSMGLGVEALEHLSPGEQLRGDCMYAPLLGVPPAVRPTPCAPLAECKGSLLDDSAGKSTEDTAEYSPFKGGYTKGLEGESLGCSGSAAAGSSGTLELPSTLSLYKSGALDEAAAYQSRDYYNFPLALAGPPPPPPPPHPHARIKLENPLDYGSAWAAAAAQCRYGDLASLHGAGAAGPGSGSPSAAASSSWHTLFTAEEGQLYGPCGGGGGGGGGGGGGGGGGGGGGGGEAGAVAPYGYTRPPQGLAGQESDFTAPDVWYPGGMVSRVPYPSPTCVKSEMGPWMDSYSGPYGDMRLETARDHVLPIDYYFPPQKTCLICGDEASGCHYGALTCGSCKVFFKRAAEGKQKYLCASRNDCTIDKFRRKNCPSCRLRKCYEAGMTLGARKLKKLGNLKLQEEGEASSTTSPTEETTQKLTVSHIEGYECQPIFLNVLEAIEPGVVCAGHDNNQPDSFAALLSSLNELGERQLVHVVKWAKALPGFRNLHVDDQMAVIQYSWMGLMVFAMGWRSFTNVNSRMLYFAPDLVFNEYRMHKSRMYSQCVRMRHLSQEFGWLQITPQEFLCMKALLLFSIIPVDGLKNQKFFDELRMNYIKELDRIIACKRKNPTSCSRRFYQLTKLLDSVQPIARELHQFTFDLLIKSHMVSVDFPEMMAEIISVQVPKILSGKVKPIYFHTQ
Protocol: (§1) The transactivative androgen agonistic activity of the compounds of the invention was measured in Chinese hamster ovary cells (CHO) transfected with the human androgen receptor (hAR), in combination with a mouse mammary tumor virus (MMTV), and luciferase receptor gene (incubation time 16 h, temperature 37° C.) and compared with the activity of 5α-dihydrotestosterone [according to the procedure described by Schoonen, W. G. E. J. et aL., Analyt. Biochem. 261, 222-224 (1998)].

[2] = target: T2, human progesterone receptor B (hPRB) (Homo sapiens, UniProt P06401); test: transactivative progestagenic agonistic activity, CHO cells transfected with hPRB, MMTV-luciferase; assay type: cell-based; parameters: Progestational Activity (%): concentration or dose not given beside the values; details: for Progestational Activity (%): compared with (16α)-16-ethyl-21-hydroxy-19-norpregn-4ene-3,20-dione, CHO-hPRB, 16 h, 37° C.; for progestagenic activity (in words): statement in the introduction, test not named
T2 construct: expressed in transfected cells; host or cells: Chinese hamster ovary cells (CHO)
T2 sequence (P06401 1-933): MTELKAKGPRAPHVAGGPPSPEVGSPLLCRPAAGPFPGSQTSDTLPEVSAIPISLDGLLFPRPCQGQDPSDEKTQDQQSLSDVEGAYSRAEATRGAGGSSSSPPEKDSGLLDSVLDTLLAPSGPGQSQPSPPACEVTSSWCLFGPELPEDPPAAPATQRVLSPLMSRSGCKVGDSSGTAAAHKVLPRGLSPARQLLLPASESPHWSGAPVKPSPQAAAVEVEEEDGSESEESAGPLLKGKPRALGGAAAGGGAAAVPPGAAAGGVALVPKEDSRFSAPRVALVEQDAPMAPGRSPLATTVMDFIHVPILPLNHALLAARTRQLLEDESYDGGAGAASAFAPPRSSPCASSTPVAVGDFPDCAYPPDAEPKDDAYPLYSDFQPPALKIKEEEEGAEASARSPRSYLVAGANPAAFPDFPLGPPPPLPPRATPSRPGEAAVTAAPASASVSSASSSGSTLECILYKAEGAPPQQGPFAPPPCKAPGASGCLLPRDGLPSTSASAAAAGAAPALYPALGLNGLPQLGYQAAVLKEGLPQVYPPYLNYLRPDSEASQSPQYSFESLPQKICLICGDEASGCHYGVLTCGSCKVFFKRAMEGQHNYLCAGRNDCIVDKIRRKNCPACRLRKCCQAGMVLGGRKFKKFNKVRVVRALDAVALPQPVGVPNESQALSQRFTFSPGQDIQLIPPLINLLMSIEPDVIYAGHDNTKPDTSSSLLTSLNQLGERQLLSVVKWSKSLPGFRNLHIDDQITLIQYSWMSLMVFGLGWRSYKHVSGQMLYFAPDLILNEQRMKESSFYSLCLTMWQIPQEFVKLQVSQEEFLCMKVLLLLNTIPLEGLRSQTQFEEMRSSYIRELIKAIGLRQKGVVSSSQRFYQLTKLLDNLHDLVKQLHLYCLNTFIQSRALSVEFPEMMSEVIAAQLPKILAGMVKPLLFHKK
Protocol: as §1, with “transactivative progestagenic” for “transactivative androgen”, “human progesterone” for “human androgen”, “receptor B (hPRB),” for “receptor (hAR),”, “of (16α)-16-ethyl-21-hydroxy-19-norpregn-4ene-3,20-dione” for “of 5α-dihydrotestosterone”, “et al.,” for “et aL.,”

[3] = Anti-osteoporosis test in mature male castrated rats (6 weeks treatment); assay type: in vivo, rat; details: for Mean proportional difference in bone density: placebo intact 100%, placebo orx 0%; for BMD (gmean ± sem): orx male rats, trabecular BMD of femur
Protocol: In this test the oral efficacy of a compound of the invention for the prevention of castration-induced trabecular bone mineral density (BMD) loss in male rats was evaluated.
Mature male Wistar rats (350-400 g) were used. Orchidectomy (orx) or sham operation was performed under isoflurane anaesthesia. After recovery of anaesthesia, within 24 hours, rats were treated once daily for 6 weeks p.o. with different doses of the compounds of the invention or vehicle only (placebo intact, placebo orx) with a volume of 1 ml/kg (n=5). One day after the last administration autopsy is performed and the right femur is dissected out. Trabecular bone mineral density of the metaphysal part of the femur was measured with a pQCT (peripheral Quantitative Computed Tomography machine; XCT 960A, Stratec, Birkenfeld, Germany).

[4] = prior art statement; cited from earlier work
[5] = J. Seaman, Toxicologic Pathology (1985); cited from earlier work

Structure (SMILES)	oral activity (in words) (serum LH)	Androgenic Activity (%) [1] [%]	Progestational Activity (%) [2] [%]	LH-Suppression MAD po (serum LH) [mg/kg]	also measured
CCC1(O)CCCC2C3CCC4=CC(=O)CCC4C3CCC21CC [(17aβ)13,17a-diethyl-17a-hydroxy-D-homogon-4-en-3-one]	not orally active				
CCC12CCC3C4CCC(=O)C=C4CCC3C1CCCC2(C)O [(17aβ)-13-ethyl-17a-hydroxy-17a-methyl-D-homogon-4-en-3-one]	not orally active				
CCC12CCC3C4CCC(=O)C=C4CCC3C1CCCC2O [(17aβ)-13-ethyl-17a-hydroxy-D-homogon4-en-3-one]	not orally active				
CC1CC2=CC(=O)CCC2C2CCC3(C)C(CCCC3(C)O)C12 [Cpd of Example 1, (7α,17aβ)-17a-hydroxy-7,17a-dimethyl-D-homoestr4-en-3-one]		42.9	53.3	8.5	Mean proportional difference in bone density ([3]; 8 mg/kg p.o. 6 weeks): 133%; BMD (gmean ± sem) ([3]; 8 mg/kg p.o. once daily 6 weeks): 255 ± 22
CCC1(O)CCCC2C3C(C)CC4=CC(=O)CCC4C3CCC21C [Cpd of Example 2, (7α,17aβ)-17aethyl-17a-hydroxy-7-methyl-D-homoestr-4en-3-one]		9.9	29.7	10	
CC1(O)CCCC2C3CCC4=CC(=O)CCC4C3CCC21C [Reference compound A, (17aβ)-17a-Hydroxy-17a-methyl-D-homoestr-4-en-3-one]	low activity upon oral administration	71.6	98.0	>30	progestagenic activity (in words) [2]: progestagenic activity; Mean proportional difference in bone density ([3]; 16 mg/kg p.o. 6 weeks): 28%; BMD (gmean ± sem) ([3]; 16 mg/kg p.o. once daily 6 weeks): 133 ± 20; prevention of trabecular bone mineral density (BMD) loss (in words) ([3]; statement in the introduction): unable to prevent trabecular bone mineral density (BMD) loss
CC1CC2=CC(=O)CCC2C2CCC3(C)C(O)CCCC3C12 [Reference compound B, (7α,17aβ)-17a-Hydroxy-7-methyl-D-homoestr-4-en-3-one]	not orally active	25.3	10.6	>30	androgenic activity (in words) ([1]; statement in the introduction, test not named): mixed androgenic and progestagenic profile; progestagenic activity (in words) [2]: mixed androgenic and progestagenic profile
C[C@@H]1CC2=CC(=O)CC[C@@H]2[C@H]2CC[C@@]3(C)[C@@H](CC[C@]3(C)O)[C@@H]21 [Reference compound C, (7α,17β)-17-Hydroxy-7,17-dimethylestr-4-en-3-one]		220	45	1.0	oral activity (in words) [4]: orally active; liver toxicity (in words) [5]: severe liver toxicity
